Test results taken from ChEMBL document CHEMBL5608208, “Design, synthesis of griseofamine A derivatives and development of potent antibacterial agents against MRSA” (Eur J Med Chem, 2024).
Converted amounts (≈) assume the structure as drawn. The source made the active and inactive calls. The rule behind the calls is not given here.

How the values were obtained:
[1] = tested on: Staphylococcus aureus; assay: Antibacterial activity against Staphylococcus aureus ATCC 29213 incubated for 18 hrs by serial two-fold dilution method; format: functional
[2] = tested on: Staphylococcus epidermidis; assay: Antibacterial activity against Staphylococcus epidermidis ATCC 12228 incubated for 18 hrs by serial two-fold dilution method; format: functional
[3] = tested on: Staphylococcus aureus; assay: Antibacterial activity against methicillin resistant Staphylococcus aureus ATCC 33592 incubated for 18 hrs by serial two-fold dilution method; format: functional
[4] = tested on: Staphylococcus aureus; assay: Antibacterial activity against methicillin resistant Staphylococcus aureus ATCC 43300 incubated for 18 hrs by serial two-fold dilution method; format: functional
[5] = tested on: Staphylococcus aureus; assay: Potency index, ratio of griseofamine A MIC to test compound MIC for antibacterial activity against methicillin resistant Staphylococcus aureus ATCC 33592; format: functional
[6] = tested on: Staphylococcus aureus; assay: Potency index, ratio of vancomycin MIC to test compound MIC for antibacterial activity against methicillin resistant Staphylococcus aureus ATCC 33592; format: functional
[7] = tested on: Staphylococcus aureus; assay: Potency index, ratio of griseofamine A MIC to test compound MIC for antibacterial activity against methicillin resistant Staphylococcus aureus ATCC 43300; format: functional
[8] = tested on: Staphylococcus aureus; assay: Potency index, ratio of vancomycin MIC to test compound MIC for antibacterial activity against methicillin resistant Staphylococcus aureus ATCC 43300; format: functional
[9] = tested on: Staphylococcus epidermidis; assay: Bactericidal activity against Staphylococcus epidermidis ATCC 12228 incubated for 18 to 24 hrs; format: functional; conditions: time 18-24 hrs
[10] = tested on: Staphylococcus aureus; assay: Bactericidal activity against Staphylococcus aureus ATCC 29213 incubated for 18 to 24 hrs; format: functional; conditions: time 18-24 hrs
[11] = tested on: Staphylococcus aureus; assay: Bactericidal activity against methicillin resistant Staphylococcus aureus ATCC 33592 incubated for 18 to 24 hrs; format: functional; conditions: time 18-24 hrs
[12] = tested on: Staphylococcus aureus; assay: Bactericidal activity against methicillin resistant Staphylococcus aureus ATCC 43300 incubated for 18 to 24 hrs; format: functional; conditions: time 18-24 hrs
[13] = tested on: Staphylococcus aureus; assay: Bactericidal activity against methicillin resistant Staphylococcus aureus ATCC 33592 at 2.5 times MIC by time-kill kinetics assay; format: functional, organism-based
[14] = tested on: Staphylococcus aureus; assay: Bactericidal activity against methicillin resistant Staphylococcus aureus ATCC 33592 at 2.5 times MIC measured after 12 hrs by time-kill kinetics assay; format: functional, organism-based
[15] = tested on: Staphylococcus epidermidis; assay: Drug resistance development in Staphylococcus epidermidis ATCC 12228 assessed as increase in MIC value measured after 8 passages by broth microdilution method; format: functional
[16] = tested on: Staphylococcus aureus; assay: Antibacterial activity against methicillin resistant Staphylococcus aureus ATCC 43300 infected in ICR mouse systemic infection model at 2.5 mg/kg, ip pretreated with bacteria for 30 mins followed by compound addition and measured for 7 days; format: functional; conditions: time 7 day
[17] = tested on: Staphylococcus aureus; assay: Potency index, ratio of griseofamine A MIC to test compound MIC for antibacterial activity against Staphylococcus aureus ATCC 29213; format: functional
[18] = tested on: Staphylococcus aureus; assay: Potency index, ratio of vancomycin MIC to test compound MIC for antibacterial activity against Staphylococcus aureus ATCC 29213; format: functional

With `C/C(O)=C1\C(=O)[C@@H]2Cc3c([nH]c4ccccc34)[C@@H](c3ccc(-c4ccc(OC(F)(F)F)cc4)cc3)N2C1=O` the MIC [1] was 0.063 µg/mL (≈ 0.122 µM), the MIC [2] was 0.125 µg/mL (≈ 0.241 µM) and the MIC [3] was 0.063 µg/mL (≈ 0.122 µM). For the same molecule, the MIC [4] was 0.063 µg/mL (≈ 0.122 µM), the Ratio [5] was 128 and the Ratio [6] was 8. For the same molecule, the Ratio [7] was 128, the Ratio [8] was 8 and the MBC [9] was 1 µg/mL (≈ 1.93 µM). It also gave an MBC [10] of 4 µg/mL (≈ 7.71 µM), an MBC [11] of 4 µg/mL (≈ 7.71 µM) and an MBC [12] of 4 µg/mL (≈ 7.71 µM).
In the case of `CN[C@H](CC(C)C)C(=O)N[C@H]1C(=O)N[C@@H](CC(N)=O)C(=O)N[C@H]2C(=O)N[C@H]3C(=O)N[C@H](C(=O)N[C@H](C(=O)O)c4cc(O)cc(O)c4-c4cc3ccc4O)[C@H](O)c3ccc(c(Cl)c3)Oc3cc2cc(c3O[C@@H]2O[C@H](CO)[C@@H](O)[C@H](O)[C@H]2O[C@H]2C[C@](C)(N)[C@H](O)[C@H](C)O2)Oc2ccc(cc2Cl)[C@H]1O` [VANCOMYCIN], the MIC [2] was 0.5 µg/mL (≈ 0.345 µM), the MBC [9] was 0.25 µg/mL (≈ 0.173 µM) and the MBC [10] was 1 µg/mL (≈ 0.69 µM). For the same molecule, the MBC [11] was 1 µg/mL (≈ 0.69 µM), the MBC [12] was 1 µg/mL (≈ 0.69 µM) and the Activity [13] was “Active”. The Activity [14] was “inactive”, the MIC [15] was 0.5 µg/mL and the Activity [16] was 62.5%.
`C/C(O)=C1\C(=O)[C@@H]2Cc3c([nH]c4ccccc34)[C@@H](c3ccc(-c4ccccc4)cc3)N2C1=O` gave an MIC [1] of 0.125 µg/mL (≈ 0.288 µM), a Ratio [17] of 64 and a Ratio [18] of 4.
`CC/C(O)=C1\C(=O)[C@@H]2Cc3c([nH]c4ccccc34)[C@@H](c3ccc(-c4cc(F)cc(F)c4)cc3)N2C1=O` was tested, and the MIC [1] was 0.063 µg/mL (≈ 0.13 µM), the MIC [2] was 0.125 µg/mL (≈ 0.258 µM) and the MIC [3] was 0.063 µg/mL (≈ 0.13 µM). The MIC [4] was 0.063 µg/mL (≈ 0.13 µM).
